Target: V-type proton ATPase (Gallus gallus)
Assay: Compound was measured for the inhibition of bafilomycin-sensitive ATPase activity in partially purified membrane preparation from chicken osteoclast (cOC)

IC50 [nM]	Structure (SMILES)
27	CO/C(=C\C=C\c1cc2cc(Cl)c(Cl)cc2[nH]1)C(=O)NC1CC(C)(C)N(C)C(C)(C)C1 [(2Z,4E)-5-(5,6-Dichloro-1H-indol-2-yl)-2-methoxy-penta-2,4-dienoic acid (1,2,2,6,6-pentamethyl-piperidin-4-yl)-amide]
2360	CO/C(=C/C=C/c1cc2cc(Cl)c(Cl)cc2[nH]1)C(=O)NC1CC(C)(C)N(C)C(C)(C)C1 [TCMDC-139097]
663	CO/C(=C\C=C/c1cc2cc(Cl)c(Cl)cc2[nH]1)C(=O)NC1CC(C)(C)N(C)C(C)(C)C1 [TCMDC-139106]

From BindingDB's records for doi:10.1016/s0960-894x(98)00660-x (Smithkline Beecham Research Unit, 1999)
